Assays:
Test in all cases: relative viability (nuclei count vs DMSO), 5 days (fraction); higher = more cells survive
[1] = compound: CCn1c(-c2nonc2N)nc2c(C#CC(C)(C)O)ncc(OC[C@H]3CCCNC3)c21 + Cc1cc(Nc2cc(N3CCN(C)CC3)nc(Sc3ccc(NC(=O)C4CC4)cc3)n2)n[nH]1 [Tozasertib] (partner 0.1 µM)
In short: (§1)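 Dosing by pin tool came one day after lung cancer cell lines were seeded in 1536-well plates, using either one drug or a fixed anchor-drug dose plus five library-drug doses (not always all listed) in √10 steps. After 5 days, nuclei were counted on 4× images. Relative viability is treated-well nuclei count divided by vehicle-well nuclei count, and values are medians of duplicate plates.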

[2] = compound: CCOC1=CC=CC=C1N=NC2=C(NN(C2=O)C3=NC(=CS3)C4=CC=CC=C4)C [BAM7] + Nc1ncn([C@H]2C[C@H](O)[C@@H](CO)O2)c(=O)n1 [Decitabine] (partner 2 µM)
In short: as §1

[3] = compound: CCn1c(-c2nonc2N)nc2c(C#CC(C)(C)O)ncc(OC[C@H]3CCCNC3)c21 + O=C(CCCCCCC(=O)Nc1ccccc1)NO [Vorinostat] (partner 1 µM)
In short: as §1

[4] = compound: CCOC1=CC=CC=C1N=NC2=C(NN(C2=O)C3=NC(=CS3)C4=CC=CC=C4)C [BAM7] + C[C@@H](Oc1cc(-c2cnn(C3CCNCC3)c2)cnc1N)c1c(Cl)ccc(F)c1Cl [Crizotinib] (partner 1 µM)
In short: as §1

Cell Line	relative viability ([1]; first compound 0.01 µM)	relative viability ([1]; first compound 0.03162 µM)	relative viability ([1]; first compound 0.1 µM)	relative viability ([1]; first compound 0.3162 µM)	relative viability ([1]; first compound 1 µM)	relative viability ([2]; first compound 0.5 µM)	relative viability ([2]; first compound 5 µM)	relative viability ([2]; first compound 15.81 µM)	relative viability ([2]; first compound 50 µM)	relative viability ([3]; first compound 0.01 µM)	relative viability ([3]; first compound 0.03162 µM)	relative viability ([3]; first compound 0.1 µM)	relative viability ([3]; first compound 0.3162 µM)	relative viability ([3]; first compound 1 µM)	relative viability ([4]; first compound 0.5 µM)	relative viability ([4]; first compound 5 µM)	relative viability ([4]; first compound 15.81 µM)	relative viability ([4]; first compound 50 µM)
NCI-H1395	0.776	0.763	0.736	0.651	0.659	0.729	0.875	0.707	0.722	0.575	0.517	0.597	0.525	0.52	–	–	–	–
LU99A	0.296	0.268	0.296	0.308	0.315	0.81	0.95	0.933	0.876	0.52	0.531	0.46	0.453	0.571	0.602	0.542	0.567	0.555
NCI-H1355	0.572	0.629	0.549	0.611	0.612	0.357	0.357	0.319	0.37	0.659	0.549	0.617	0.55	0.619	0.968	1.05	0.937	0.987
HCC-78	0.391	0.414	0.36	0.41	0.405	0.965	0.696	0.731	0.752	0.434	0.452	0.455	0.416	0.436	0.339	0.334	0.324	0.308
NCI-H1563	–	–	–	–	–	–	–	–	–	–	–	–	–	–	0.974	0.942	0.889	0.841
HCC-15	0.393	0.439	0.338	0.427	0.384	0.607	0.587	0.621	0.676	0.97	0.858	0.894	0.769	0.881	0.812	0.811	0.785	0.724
EKVX	0.341	0.37	0.416	0.405	0.368	0.372	0.355	0.284	0.334	0.705	0.765	0.689	0.726	0.807	1.15	0.963	0.54	0.711
NCI-H2087	0.264	0.258	0.248	0.259	0.303	0.339	0.289	0.292	0.297	0.971	–	0.706	0.517	0.96	0.887	0.916	0.856	0.7
LK-2	0.165	0.171	–	–	0.184	0.352	0.335	0.347	0.326	0.239	0.291	0.289	0.316	0.321	0.246	0.23	0.244	0.27

— the supplement of paper PMC10307832
